Experimental data: ChEMBL document CHEMBL1201862, “PubChem BioAssay data set” (2004)
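Growth conditions: 96-well plates. Treatment: test compound, 48 hours, 5 concentrations. Analysis: linear interpolation between bracketing concentrations; unreached endpoints set to highest concentration. GI50 = concentration required for 50% inhibition of growth.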 Calls of active or inactive are those of the source. Cut-off read from the data, not from the text of the source: active = GI50 up to about 1.1 µM and inactive = higher.

Key:
Test in all cases: NCI tumour cell line growth inhibition, 48 h
MOLT-4 = test system: MOLT-4
SK-MEL-28 = test system: SK-MEL-28
A549 = test system: A549
UACC-257 = test system: UACC-257
OVCAR-5 = test system: OVCAR-5
HOP-62 = test system: HOP-62
RXF 631 = test system: RXF 631
LOX IMVI = test system: LOX IMVI
M14 = test system: M14
SW-620 = test system: SW-620
K562 = test system: K562
SK-OV-3 = test system: SK-OV-3
HCT-116 = test system: HCT-116
HT-29 = test system: HT-29
HCC 2998 = test system: HCC 2998
IGROV-1 = test system: IGROV-1
SNB-19 = test system: SNB-19
SNB-75 = test system: SNB-75
RPMI-8226 = test system: RPMI-8226
NCI-H226 = test system: NCI-H226
LXFL 529 = test system: LXFL 529
UACC-62 = test system: UACC-62
KM12 = test system: KM12
OVCAR-8 = test system: OVCAR-8
EKVX = test system: EKVX
SF-268 = test system: SF-268
SF-295 = test system: SF-295
COLO 205 = test system: COLO 205
RXF 393 = test system: RXF 393
Malme-3M = test system: Malme-3M
UO-31 = test system: UO-31
TK-10 = test system: TK-10
U-251 = test system: U-251
KM-20L2 = test system: KM-20L2
SN12C = test system: SN12C
ACHN = test system: ACHN
HCT-15 = test system: HCT-15
786-0 = test system: 786-0
NCI-H460 = test system: NCI-H460
SNB-78 = test system: SNB-78
NCI-H23 = test system: NCI-H23
DLD-1 = test system: DLD-1
OVCAR-4 = test system: OVCAR-4
NCI-H522 = test system: NCI-H522
HOP-18 = test system: HOP-18
SK-MEL-5 = test system: SK-MEL-5
HL-60 = test system: HL-60
M19-MEL = test system: M19-MEL
A498 = test system: A498
SR = test system: SR
DMS-273 = test system: DMS-273
CAKI-1 = test system: CAKI-1
SK-MEL-2 = test system: SK-MEL-2
OVCAR-3 = test system: OVCAR-3
DMS-114 = test system: DMS-114
HOP-92 = test system: HOP-92

SMILES: CC1(C)OC(COCCOCCCCCO)C(COCCOCCCCCO)O1 (stereo not given)
- GI50 (MOLT-4): > 100 µM (inactive)
- GI50 (SK-MEL-28): > 100 µM (inactive)
- GI50 (A549): > 100 µM (inactive)
- GI50 (UACC-257): > 100 µM (inactive)
- GI50 (OVCAR-5): > 100 µM (inactive)
- GI50 (HOP-62): > 100 µM (inactive)
- GI50 (RXF 631): > 100 µM (inactive)
- GI50 (LOX IMVI): > 100 µM (inactive)
- GI50 (M14): > 100 µM (inactive)
- GI50 (SW-620): > 100 µM (inactive)
- GI50 (K562): > 100 µM (inactive)
- GI50 (SK-OV-3): > 100 µM (inactive)
- GI50 (HCT-116): > 100 µM (inactive)
- GI50 (HT-29): > 100 µM (inactive)
- GI50 (HCC 2998): > 100 µM (inactive)
- GI50 (IGROV-1): > 100 µM (inactive)
- GI50 (SNB-19): > 100 µM (inactive)
- GI50 (SNB-75): > 100 µM (inactive)
- GI50 (RPMI-8226): > 100 µM (inactive)
- GI50 (NCI-H226): > 100 µM (inactive)
- GI50 (LXFL 529): > 100 µM (inactive)
- GI50 (UACC-62): 82.6 µM (inactive)
- GI50 (KM12): > 100 µM (inactive)
- GI50 (OVCAR-8): > 100 µM (inactive)
- GI50 (EKVX): > 100 µM (inactive)
- GI50 (SF-268): > 100 µM (inactive)
- GI50 (SF-295): > 100 µM (inactive)
- GI50 (COLO 205): > 100 µM (inactive)
- GI50 (RXF 393): > 100 µM (inactive)
- GI50 (Malme-3M): > 100 µM (inactive)
- GI50 (UO-31): > 100 µM (inactive)
- GI50 (TK-10): > 100 µM (inactive)
- GI50 (U-251): > 100 µM (inactive)
- GI50 (KM-20L2): > 100 µM (inactive)
- GI50 (SN12C): > 100 µM (inactive)
- GI50 (ACHN): > 100 µM (inactive)
- GI50 (HCT-15): > 100 µM
- GI50 (786-0): > 100 µM (inactive)
- GI50 (NCI-H460): > 100 µM (inactive)
- GI50 (SNB-78): > 100 µM (inactive)
- GI50 (NCI-H23): > 100 µM (inactive)
- GI50 (DLD-1): > 100 µM (inactive)
- GI50 (OVCAR-4): > 100 µM (inactive)
- GI50 (NCI-H522): > 100 µM (inactive)
- GI50 (HOP-18): > 100 µM (inactive)
- GI50 (SK-MEL-5): > 100 µM (inactive)
- GI50 (HL-60): > 10 µM (inactive)
- GI50 (M19-MEL): > 100 µM (inactive)
- GI50 (A498): > 100 µM (inactive)
- GI50 (SR): > 100 µM (inactive)
- GI50 (DMS-273): > 100 µM (inactive)
- GI50 (CAKI-1): > 100 µM (inactive)
- GI50 (SK-MEL-2): > 100 µM (inactive)
- GI50 (OVCAR-3): > 100 µM (inactive)
- GI50 (DMS-114): > 100 µM (inactive)

SMILES: O=C1[C@@H]2C(c3ccc(Br)cc3)=NO[C@@H]2C(=O)N1c1ccc(Cc2ccc(N3C(=O)[C@H]4C(c5ccc(Br)cc5)=NO[C@H]4C3=O)cc2)cc1
- GI50 (RXF 631): > 40 µM (inactive)
- GI50 (HCT-116): > 40 µM (inactive)
- GI50 (HOP-92): > 40 µM (inactive)
- GI50 (TK-10): 16.9 µM (inactive)
- GI50 (SN12C): > 40 µM (inactive)
- GI50 (ACHN): > 40 µM (inactive)
- GI50 (HCT-15): > 40 µM
- GI50 (A498): 0.0139 µM (active)
- GI50 (SR): 19.1 µM (inactive)
- GI50 (DMS-273): > 40 µM (inactive)
